Results taken from US6372795B1, “Cosmetic compositions containing substituted amide derivatives” (Unilever Home and Personal Care USA, A Division of Conopco, …, priority 2000, dated 2002).
Several values for one entry are separate records, joined by “and”; a condition that tells them apart may be missing. Identical values can stand only once. Like-named read-outs stand apart in the source and are kept apart here.

System: human sebocytes
Assay: Sebum suppression in secondary cultures of human sebocytes (14C-acetate label remaining in sebocytes)
Type: cell-based
Settings: for sebum suppressive activity in the presence of a retinoid (combined with retinol): compared with compound alone, summary in words; for % of Control / activity at 1 µM / activity at 10 µM: human sebocytes; for activity at 1 µM / activity at 10 µM: Homo sapiens, read-out: % of Control
Procedure: Compounds A through G were tested for their potential to suppress sebum expression, alone or in the presence of a retinoid.
Secondary cultures of human sebocytes obtained from an adult […] were grown in 48-well tissue culture plates (Costar Corp.; Cambridge, Ma.) or 96-well tissue culture plates (Packard Co.; Meriden, Conn.) until confluent. Sebocyte growth medium consisted of Clonetics Keratinocyte Basal Medium (KBM) supplemented with 14 μg/ml bovine pituitary extract, 0.4 μg/ml hydrocortisone, 5 μg/ml insulin, 10 ng/ml epidermal growth factor, 1.2×10^-10 M cholera toxin, 100 units/ml penicillin, and 100 μg/ml streptomycin. All cultures were incubated at 37° C. in the presence of 7.5% CO2. Medium was changed three times per week.
On the day of experimentation, the growth medium was removed and the sebocytes washed three times with sterile Dulbecco's Modified Eagle Medium (DMEM; phenol red free). Fresh DMEM was added to each sample (duplicates, triplicates, or quadruplicates depending on the experiment) with 5 microliter of test agent solubilized in ethanol either alone or in the presence of one or 10 micromolar of retinol. Controls consisted of addition of ethanol alone, retinol alone, or phenol red, which has estrogen-like activity and is included as a positive control.
Each plate was returned to the incubator for 20 hours followed by the addition of 14C-acetate buffer (5 mM final concentration, 56 mCi/mmol specific activity). Sebocytes were returned to the incubator for four hours afterwhich each culture was rinsed three times with phosphate buffered saline to remove unbound label. Radioactive label remaining in the sebocytes was harvested and counted using a Beckman scintillation counter.

[1] = 10 μM test compound + 1 μM Retinol
[2] = 10 μM test compound + 10 μM Retinol
[3] = 1 μM test compound + 1 μM Retinol
[4] = 1 μM test compound + 10 μM Retinol
[5] = 1 μM test compound alone, 20 h + 4 h 14C-acetate

Structure (SMILES)	sebum suppressive activity in the presence of a retinoid (combined with retinol)	activity at 1 µM [3] [%]	activity at 1 µM [4] [%]	activity at 1 µM [5] [%]	activity at 10 µM (10 μM test compound alone) [%]	other results
O=C(Nc1ccc(O)cc1)Nc1cccc(C(F)(F)F)c1 [Compound E]	improved sebum suppressive activity	–	–	–	–	–
CCOC(=O)c1ccc(NC(=O)Nc2ccc(O)cc2)cc1 [Compound F]	improved sebum suppressive activity	71	76.2	84	57.4	% of Control [1]: 53.1% and 73.4%; % of Control [2]: 63.4% and 40.4%; % of Control (10 μM test compound alone, 10 µM): 72.0%
Cc1cccc(N2CCN(C(=O)CC3C=CC(CC(=O)N4CCN(c5cccc(C)c5)C(C)C4)C3)CC2C)c1 (centres unmarked) [G]	improved sebum suppressive activity	–	–	–	–	–
CC1=C(/C=C/C(C)=C/C=C/C(C)=C/CO)C(C)(C)CCC1 [Retinol, retinol, reference compound]	–	–	–	–	–	% of Control (1 μM Retinol alone): 99.9%; % of Control (10 μM Retinol alone): 103.7% and 100.9% and 100.1%; sebum suppressive activity (substance alone, summary in words of Tables 1-12): inactive
CCOC(=O)c1ccc(NC(=O)Nc2cccc(C(C)O)c2)cc1 (centres unmarked) [Compound D]	improved sebum suppressive activity	82.8	78	82.4	58.5	activity at 10 µM [1]: 66.8%; activity at 10 µM [2]: 25%
